pIC50: −log10 of the molar value.
Assays:
Cytochrome P450 3A4 = Cytochrome P450 3A4 (Homo sapiens, UniProt P08684); test: Inhibition of CYP3A4 (unknown origin) using 7-benzyl-4-trifluoromethylcoumarin as fluorometric substrate; type: ADME
[1] = Half life in cannulated fed Sprague-Dawley rat at 2 mg/kg, iv; type: ADME, organism-based; parameters: dose 2 mg/kg, route intravenous; settings: in vivo
Rattus norvegicus [2] = test: Plasma clearance in cannulated fed Sprague-Dawley rat at 2 mg/kg, iv; type: ADME, organism-based; parameters: dose 2 mg/kg, route intravenous; settings: in vivo
[3] = target: T1, Alpha-2A adrenergic receptor (Homo sapiens, UniProt P08913); test: Inhibition of alpha-adrenoceptor 2A (unknown origin)
T1 sequence (P08913 whole entry): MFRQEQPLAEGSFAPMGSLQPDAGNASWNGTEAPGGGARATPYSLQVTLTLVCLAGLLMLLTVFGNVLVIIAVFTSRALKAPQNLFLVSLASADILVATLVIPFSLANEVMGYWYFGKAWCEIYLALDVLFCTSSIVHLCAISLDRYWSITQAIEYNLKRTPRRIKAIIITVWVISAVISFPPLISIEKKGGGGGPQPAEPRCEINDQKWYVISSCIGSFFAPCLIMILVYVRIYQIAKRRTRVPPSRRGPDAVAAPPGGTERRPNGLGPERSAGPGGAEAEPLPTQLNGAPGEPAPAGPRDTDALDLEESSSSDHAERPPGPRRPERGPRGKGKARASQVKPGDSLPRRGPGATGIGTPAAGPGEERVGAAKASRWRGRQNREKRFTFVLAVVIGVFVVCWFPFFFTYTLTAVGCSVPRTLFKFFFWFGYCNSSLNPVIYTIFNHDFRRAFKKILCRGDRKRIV

Renin [4] = target: T2, Renin (Homo sapiens, UniProt P00797); test: Inhibition of human recombinant renin in presence of plasma by TR-FRET assay
T2 sequence (P00797 whole entry): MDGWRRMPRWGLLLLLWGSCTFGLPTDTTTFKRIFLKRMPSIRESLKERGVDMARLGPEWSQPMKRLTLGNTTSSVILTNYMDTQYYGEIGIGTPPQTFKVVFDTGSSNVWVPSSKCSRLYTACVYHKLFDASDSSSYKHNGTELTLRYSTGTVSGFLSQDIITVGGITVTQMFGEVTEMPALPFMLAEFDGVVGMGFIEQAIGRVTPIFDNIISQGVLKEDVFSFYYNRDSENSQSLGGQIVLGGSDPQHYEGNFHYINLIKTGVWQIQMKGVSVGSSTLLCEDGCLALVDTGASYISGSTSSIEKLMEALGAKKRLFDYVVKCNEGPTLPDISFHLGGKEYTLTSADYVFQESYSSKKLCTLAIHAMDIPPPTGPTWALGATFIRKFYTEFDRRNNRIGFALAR

[5] = target: Voltage-gated inwardly rectifying potassium channel KCNH2 (Homo sapiens, UniProt Q12809); test: Inhibition of human ERG by dofetilide binding assay
[6] = Cmax in cannulated fed Sprague-Dawley rat at 6 mg/kg, po; type: ADME, organism-based; parameters: dose 6 mg/kg, route oral; settings: in vivo
Cytochrome P450 2C9 = Cytochrome P450 2C9 (Homo sapiens, UniProt P11712); test: Inhibition of CYP2C9 (unknown origin); type: ADME
Cathepsin D = Cathepsin D (Homo sapiens, UniProt P07339); test: Inhibition of cathepsin D (unknown origin)
[7] = target: T3, Alpha-1A adrenergic receptor (Homo sapiens, UniProt P35348); test: Inhibition of alpha-adrenoceptor 1A (unknown origin)
T3 sequence (P35348 whole entry): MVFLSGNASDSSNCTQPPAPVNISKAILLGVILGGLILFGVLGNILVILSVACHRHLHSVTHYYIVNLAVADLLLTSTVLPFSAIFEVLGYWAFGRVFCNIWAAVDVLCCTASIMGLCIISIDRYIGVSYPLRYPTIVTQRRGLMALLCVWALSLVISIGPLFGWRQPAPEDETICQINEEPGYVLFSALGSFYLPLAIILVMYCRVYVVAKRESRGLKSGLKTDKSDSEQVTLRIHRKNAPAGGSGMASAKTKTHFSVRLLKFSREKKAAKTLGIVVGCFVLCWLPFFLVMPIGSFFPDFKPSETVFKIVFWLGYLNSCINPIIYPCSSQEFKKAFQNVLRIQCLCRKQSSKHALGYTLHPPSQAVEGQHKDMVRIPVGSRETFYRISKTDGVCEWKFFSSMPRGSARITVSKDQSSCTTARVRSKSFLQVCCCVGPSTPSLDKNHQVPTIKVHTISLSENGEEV

Rattus norvegicus [8] = test: Reduction in mean arterial blood pressure in hypertensive telemetered double-transgenic rat overexpressing human renin and angiotensinogen at 30 mg/kg, po; type: functional
Pepsin A = Pepsin A (Homo sapiens, UniProt P0DJD9); test: Inhibition of pepsin A (unknown origin)
Rattus norvegicus [9] = test: Reduction in mean arterial blood pressure in hypertensive telemetered double-transgenic rat overexpressing human renin and angiotensinogen at 6 mg/kg, po; type: functional
Mu-type opioid receptor = Mu-type opioid receptor (Homo sapiens, UniProt P35372); test: Inhibition of mu opioid receptor (unknown origin)
Renin [10] = target: T2, Renin; test: Inhibition of human recombinant renin by TR-FRET assay
[11] = Volume of distribution at steady state in cannulated fed Sprague-Dawley rat at 2 mg/kg, iv; type: ADME, organism-based; parameters: dose 2 mg/kg, route intravenous; settings: in vivo, read-out: Vdss
Beta-secretase 1 = Beta-secretase 1 (Homo sapiens, UniProt P56817); test: Inhibition of BACE1 (unknown origin)
Phosphodiesterase 3 = Phosphodiesterase 3 (Homo sapiens, UniProt Q14432+Q13370); test: Inhibition of PDE3 (unknown origin); type: protein assay
Cathepsin E = target: T4, Cathepsin E (Homo sapiens, UniProt P14091); test: Inhibition of cathepsin E (unknown origin)
T4 sequence (P14091 whole entry): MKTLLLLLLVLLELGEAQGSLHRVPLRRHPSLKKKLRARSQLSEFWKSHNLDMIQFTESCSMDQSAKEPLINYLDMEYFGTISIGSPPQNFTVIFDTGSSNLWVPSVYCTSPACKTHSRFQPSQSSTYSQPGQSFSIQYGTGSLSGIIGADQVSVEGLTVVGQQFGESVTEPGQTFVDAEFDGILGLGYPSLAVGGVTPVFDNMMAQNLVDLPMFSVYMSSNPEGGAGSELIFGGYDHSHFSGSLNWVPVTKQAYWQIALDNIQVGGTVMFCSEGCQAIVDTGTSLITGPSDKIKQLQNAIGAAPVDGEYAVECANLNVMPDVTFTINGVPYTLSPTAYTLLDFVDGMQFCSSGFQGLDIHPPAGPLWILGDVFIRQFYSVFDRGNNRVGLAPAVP

Sequence of Mu-type opioid receptor (P35372 whole entry): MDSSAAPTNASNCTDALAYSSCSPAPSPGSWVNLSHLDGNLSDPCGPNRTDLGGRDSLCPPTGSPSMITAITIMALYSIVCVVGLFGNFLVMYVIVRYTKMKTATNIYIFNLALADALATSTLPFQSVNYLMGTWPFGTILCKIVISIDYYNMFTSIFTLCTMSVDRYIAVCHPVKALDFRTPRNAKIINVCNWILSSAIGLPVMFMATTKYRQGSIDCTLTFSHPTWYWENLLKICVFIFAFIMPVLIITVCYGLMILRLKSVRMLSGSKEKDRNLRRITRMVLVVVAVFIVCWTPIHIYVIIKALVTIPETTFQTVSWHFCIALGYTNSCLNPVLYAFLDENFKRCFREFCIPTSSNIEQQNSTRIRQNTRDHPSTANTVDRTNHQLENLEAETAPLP
Sequence of Voltage-gated inwardly rectifying potassium channel KCNH2 (Q12809 whole entry): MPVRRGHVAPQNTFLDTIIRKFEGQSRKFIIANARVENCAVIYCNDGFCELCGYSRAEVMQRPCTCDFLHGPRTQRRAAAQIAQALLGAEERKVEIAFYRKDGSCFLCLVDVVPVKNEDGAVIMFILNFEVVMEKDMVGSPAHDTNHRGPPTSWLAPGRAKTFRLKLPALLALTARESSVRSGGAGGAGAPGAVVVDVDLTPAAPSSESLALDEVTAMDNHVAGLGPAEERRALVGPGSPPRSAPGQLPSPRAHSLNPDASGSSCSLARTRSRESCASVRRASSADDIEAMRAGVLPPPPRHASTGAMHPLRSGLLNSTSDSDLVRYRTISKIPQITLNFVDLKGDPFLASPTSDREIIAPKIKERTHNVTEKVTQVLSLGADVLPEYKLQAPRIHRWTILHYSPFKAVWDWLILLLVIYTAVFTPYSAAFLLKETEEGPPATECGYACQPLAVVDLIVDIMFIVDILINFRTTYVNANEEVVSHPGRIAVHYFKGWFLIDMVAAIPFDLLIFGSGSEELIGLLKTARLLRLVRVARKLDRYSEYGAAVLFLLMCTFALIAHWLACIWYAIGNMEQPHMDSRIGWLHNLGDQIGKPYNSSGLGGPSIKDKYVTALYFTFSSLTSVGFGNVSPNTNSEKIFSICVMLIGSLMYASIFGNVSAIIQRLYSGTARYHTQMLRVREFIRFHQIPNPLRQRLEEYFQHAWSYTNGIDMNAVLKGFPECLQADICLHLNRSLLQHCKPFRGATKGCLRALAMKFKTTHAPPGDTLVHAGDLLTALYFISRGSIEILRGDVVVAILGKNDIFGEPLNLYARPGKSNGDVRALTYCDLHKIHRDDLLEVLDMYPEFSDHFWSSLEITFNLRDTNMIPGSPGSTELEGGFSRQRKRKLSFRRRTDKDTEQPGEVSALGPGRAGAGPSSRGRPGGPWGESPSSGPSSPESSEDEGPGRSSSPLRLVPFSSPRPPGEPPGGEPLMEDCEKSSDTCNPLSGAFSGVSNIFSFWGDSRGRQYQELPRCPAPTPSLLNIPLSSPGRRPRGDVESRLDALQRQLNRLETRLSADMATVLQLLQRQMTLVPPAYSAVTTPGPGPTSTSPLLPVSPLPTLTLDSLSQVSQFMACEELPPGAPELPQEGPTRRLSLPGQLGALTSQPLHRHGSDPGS
Sequence of Cytochrome P450 2C9 (P11712 whole entry): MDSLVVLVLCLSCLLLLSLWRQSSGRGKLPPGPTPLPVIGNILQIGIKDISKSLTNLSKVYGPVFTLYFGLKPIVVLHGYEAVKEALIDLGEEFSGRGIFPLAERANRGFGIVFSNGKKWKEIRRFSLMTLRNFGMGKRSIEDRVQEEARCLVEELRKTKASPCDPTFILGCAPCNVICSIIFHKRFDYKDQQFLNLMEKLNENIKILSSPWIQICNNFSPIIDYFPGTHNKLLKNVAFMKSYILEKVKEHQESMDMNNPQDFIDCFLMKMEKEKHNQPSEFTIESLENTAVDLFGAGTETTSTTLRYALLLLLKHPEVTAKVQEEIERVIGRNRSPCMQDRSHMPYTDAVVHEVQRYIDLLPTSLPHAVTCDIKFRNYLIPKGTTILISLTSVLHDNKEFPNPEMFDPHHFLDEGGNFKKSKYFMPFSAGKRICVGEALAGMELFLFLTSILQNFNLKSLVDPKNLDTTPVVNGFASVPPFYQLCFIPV
Sequence of Beta-secretase 1 (P56817 whole entry): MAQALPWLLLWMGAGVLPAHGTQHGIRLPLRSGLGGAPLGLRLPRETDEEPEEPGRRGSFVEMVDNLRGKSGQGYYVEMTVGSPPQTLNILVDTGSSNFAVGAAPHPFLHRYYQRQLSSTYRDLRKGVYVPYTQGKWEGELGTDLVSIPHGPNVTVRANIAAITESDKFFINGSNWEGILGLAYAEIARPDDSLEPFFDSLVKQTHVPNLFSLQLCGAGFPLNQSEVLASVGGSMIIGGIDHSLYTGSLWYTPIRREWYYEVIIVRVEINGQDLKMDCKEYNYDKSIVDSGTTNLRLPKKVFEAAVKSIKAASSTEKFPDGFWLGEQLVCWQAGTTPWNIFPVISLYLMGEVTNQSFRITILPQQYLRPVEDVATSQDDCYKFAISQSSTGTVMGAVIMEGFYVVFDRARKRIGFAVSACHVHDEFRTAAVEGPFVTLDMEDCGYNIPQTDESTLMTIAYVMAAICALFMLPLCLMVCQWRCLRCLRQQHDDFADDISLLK
Sequence of Cathepsin D (P07339 65-162 limits assumed): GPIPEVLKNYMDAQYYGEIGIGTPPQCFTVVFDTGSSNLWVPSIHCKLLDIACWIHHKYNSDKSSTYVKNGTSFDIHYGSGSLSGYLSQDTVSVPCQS
Sequence of Cathepsin D (P07339 169-412 limits assumed): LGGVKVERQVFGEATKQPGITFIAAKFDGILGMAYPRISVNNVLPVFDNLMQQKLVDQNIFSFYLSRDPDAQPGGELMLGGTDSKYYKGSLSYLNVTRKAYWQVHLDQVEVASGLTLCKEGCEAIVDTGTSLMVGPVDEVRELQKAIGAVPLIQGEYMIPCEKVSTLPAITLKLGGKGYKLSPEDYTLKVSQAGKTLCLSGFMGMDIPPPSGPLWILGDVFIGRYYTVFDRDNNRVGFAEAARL
Sequence of Pepsin A (P0DJD9 whole entry): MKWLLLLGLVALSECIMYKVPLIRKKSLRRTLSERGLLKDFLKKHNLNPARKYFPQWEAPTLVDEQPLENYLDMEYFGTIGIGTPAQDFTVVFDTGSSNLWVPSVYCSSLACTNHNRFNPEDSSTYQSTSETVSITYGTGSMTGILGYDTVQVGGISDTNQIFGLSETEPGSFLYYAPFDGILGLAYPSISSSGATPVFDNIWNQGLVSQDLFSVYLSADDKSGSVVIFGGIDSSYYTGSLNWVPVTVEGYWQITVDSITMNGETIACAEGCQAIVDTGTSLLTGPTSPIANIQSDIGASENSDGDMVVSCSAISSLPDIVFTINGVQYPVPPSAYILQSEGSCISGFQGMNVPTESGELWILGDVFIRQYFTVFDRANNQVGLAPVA
Sequence of Cytochrome P450 3A4 (P08684 whole entry): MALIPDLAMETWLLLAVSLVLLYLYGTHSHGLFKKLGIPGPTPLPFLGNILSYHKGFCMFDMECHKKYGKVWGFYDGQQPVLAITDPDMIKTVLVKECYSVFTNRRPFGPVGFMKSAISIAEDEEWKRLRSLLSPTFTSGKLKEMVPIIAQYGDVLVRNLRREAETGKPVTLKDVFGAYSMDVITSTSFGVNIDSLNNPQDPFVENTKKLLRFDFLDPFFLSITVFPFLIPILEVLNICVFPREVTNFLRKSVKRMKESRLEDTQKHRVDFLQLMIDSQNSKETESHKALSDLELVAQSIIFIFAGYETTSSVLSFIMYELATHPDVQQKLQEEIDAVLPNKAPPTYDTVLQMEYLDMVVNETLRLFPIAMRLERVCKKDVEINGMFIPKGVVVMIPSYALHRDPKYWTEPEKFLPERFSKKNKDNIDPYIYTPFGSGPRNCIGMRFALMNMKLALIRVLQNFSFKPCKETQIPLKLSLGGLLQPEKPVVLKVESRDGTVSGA

pIC50 (Cytochrome P450 3A4): 5.40
half-life [1]: 2.2 h
CL (Rattus norvegicus [2]): 41.7 mL/min/kg
pIC50 [3]: 6.00
pIC50 (Renin [4]): 7.52
Cmax [6]: 1020 nM
pIC50 (Cytochrome P450 2C9): < 4.70
pIC50 (Cathepsin D): < 4.52
pIC50 [7]: 6.30
pIC50 (Pepsin A): < 4.52
pIC50 (Mu-type opioid receptor): 6.00
pIC50 (Renin [10]): 7.40
Vd [11]: 4.9 L/kg
pIC50 (Beta-secretase 1): < 4.52
IC50 (Phosphodiesterase 3): 1000 nM
pIC50 (Cathepsin E): < 4.52
SMILES: COCCCOc1cc(C(=O)N(C[C@@H]2CNC[C@H]2OC(=O)NCc2ccccc2)C(C)C)ccc1OC
pIC50 [5]: 4.89
Activity (Rattus norvegicus [8]): 62 mmHg
Activity (Rattus norvegicus [9]): 43 mmHg
